According to paper PMC11445181 (Frontiers in Plant Science, 2024):

Biological target: T1, LcCOMT (Conioselinum anthriscoides, UniProt A0A0K1YW34)
T1 construct: full-length cDNA in pET28a, His-tagged, E. coli BL21 (DE3), Ni-agarose purified; homodimer (N-terminal dimerization domain)
T1 sequence (A0A0K1YW34 1-362): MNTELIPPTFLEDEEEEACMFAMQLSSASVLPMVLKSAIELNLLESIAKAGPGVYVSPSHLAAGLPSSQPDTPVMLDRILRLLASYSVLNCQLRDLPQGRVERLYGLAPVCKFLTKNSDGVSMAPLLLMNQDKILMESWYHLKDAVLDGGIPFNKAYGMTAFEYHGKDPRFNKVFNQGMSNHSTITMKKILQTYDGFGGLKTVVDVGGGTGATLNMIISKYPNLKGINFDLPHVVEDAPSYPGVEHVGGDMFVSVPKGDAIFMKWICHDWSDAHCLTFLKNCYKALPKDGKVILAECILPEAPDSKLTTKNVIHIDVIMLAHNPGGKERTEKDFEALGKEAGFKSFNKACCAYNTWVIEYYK
Test: inhibition of N-acetylserotonin methylation
Assay type: biochemical
Conditions: 2.0 mM N-acetylserotonin; caffeic acid is itself a substrate (competing substrate)

- % reduction in activity at 1.0 mM: 31.80%
SMILES: O=C(O)/C=C/c1ccc(O)c(O)c1 [caffeic acid]
